Measured values as given in patent US20120219568A1, “EPIDITHIODIOXO[…] USES THEREOF IN TREATING CANCER” (priority 2011, published 2012).

Columns and labels:
[1] = system: BNIP3, IRF8, Neurog1, p15ink4b, RUNX3; test: Expression of genes with methylated promoters; format: cell-based, human; conditions: SW620, AzadC 0-1.0 μM
Method: To determine whether verticillin A inhibits DNA methylation in other gene promoters, 4 other genes (IRF8, Neurog1, p15ink4b, RUNX3) with known promoter DNA methylation in human colon carcinoma cells were selected. SW620 cells were treated with AzadC (0-1.0 μM) and verticillin A (0-50 nM), respectively, and analyzed for the expression of BNIP3 and these 4 genes.

[2] = system: SW620 cells; test: Exogenous ceramide and TRAIL-mediated apoptosis; format: cell-based, human
Method: FIG. 8 is a bar graph showing cell death (%) of SW620 cells incubated with C16 ceramide for 2 h followed by treatment with TRAIL overnight. The tumor cells were then stained with PI and annex V and analyzed by flow cytometry. % apoptotic cells were calculated by the formula [% annexin V^+ cells of the TRAIL-treated cells-% annexin V^+ cells of untreated cells].
A-CDase catalyzes ceramide degradation to decrease ceramide level in the cells and overexpression of A-Cdase is often associated with apoptosis resistance in tumor cells (Elojeimy S, et al. Mol Ther 2007 15(7):1259-63; Liu X, et al. Front Biosci 2008 13:2293-8; Mao C, et al. Biochim Biophys Acta 2008 1781(9):424-34; Ogretmen B. FEBS Lett 2006 580(23):5467-76; Baran Y, et al. J Biol Chem 2007 282(15):10922-34). Inhibition of A-CDase activity is often associated with increased ceramide level and enhanced apoptosis sensitivity (Liu X, et al. Front Biosci 2008 13:2293-8; Ogretmen B. FEBS Lett 2006 580(23):5467-76; White-Gilbertson S, et al. Oncogene 2009 28(8):1132-41). Next, we examined the effect of exogenous ceramide on tumor cell sensitivity to TRAIL-mediated apoptosis. SW620 cells were incubated with different concentrations of C16 ceramide for 2 h and then treated with TRAIL.

[3] = system: Colon carcinoma (LS114N, T84, LS174T and SW620); test: A-CDase inhibitor pre-treatment and TRAIL-induced apoptosis; format: cell-based; conditions: LCL85 pre-treatment prior to TRAIL
Method: A complementary approach was examined to determine the role of A-CDase in TRAIL resistance. Colon carcinoma (LS114N, T84, LS174T and SW620) were treated with A-CDase inhibitor LCL85 prior to TRAIL treatment and analyzed for apoptosis.

[4] = system: SW620 cells; test: SW620 growth with anticancer drugs, MTT assay; format: cell-based, human; conditions: for growth inhibitory effect of the drug alone at lower dose: Etoposide 1 μg/ml, Cisplatin 1 μg/ml, 5-FU 0.1 μg/ml, Doxorubicin 0.01 μg/ml; for SW620 cell sensitivity to the drug: drug alone
Method: For cell viability assay, cells were seeded in wells of 96-well plates for 2 days and then treated with different concentrations of mushroom extract fractions or purified verticillin A for 2 days. The cells were then incubated with MTT (3-(4,5-dimethylthiazol-2-yl)-2,5-diphenyltetrazolium bromide) using the MTT assay kit (ATCC, Manassas, Va.) according to the manufacturer's instructions.
Etoposie, Cisplatin, 5-FU and Doxorubicin are commonly used cancer drugs that suppress tumor cell growth through their cytotoxicity. High cytotoxicity is often associated with high dose of their drugs. Furthermore, tumor cells often develop resistance to these cytotoxic drugs. To determine whether Verticillin A can increase the efficacy of these drugs and overcome drug resistance, the effectiveness of Verticillin A combined with these 4 drugs in suppression of tumor cell growth was tested in vitro. SW620 cell sensitivity to these drugs was first measured. SW620 cells are resistant to Etoposide but sensitive to 5-FU. […] SW620 cells were next pretreated with Verticillin A, followed by treatment with Etoposide (1 μg/ml), Cisplatin (1 μg/ml), 5-FU ([…]) and Doxorubicin (0.01 μg/ml), respectively.

[5] = system: SW620 cells; test: Apoptosis and TRAIL sensitization of SW620 cells (PI/annexin V flow cytometry); format: cell-based, human; conditions: SW620, agent alone
Method: Cells were seeded in wells of 96-well plates for 2 days and then treated with different concentrations of mushroom extract fractions or purified verticillin A for 2 days. The cells were stained with propidium iodide (PI) (Trevigen, Gaithersburg, Md.) or PI plus annexin V-Alex Fluor 647 (Biolegend, San Diego, Calif.) and analyzed by flow cytometry.
SW620 is a metastatic human colon carcinoma cell line that is resistant to TRAIL-induced apoptosis (Voelkel-Johnson C, et al. Mol Cancer Ther 2005 4(9):1320-7).

[6] = system: SW620 tumor xenograft; test: SW620 tumor xenograft growth in athymic mice; format: in vivo; conditions: TRAIL single agent
Method: Athymic mice were subcutaneously inoculated with human hepatoma HepG2 and colon carcinoma SW620 cells, respectively. The tumor-bearing mice were randomized into experimental groups. The control mice were given saline. The treatment group was intravenously injected with verticillin A at the doses of 1 and 2 mg/kg body weight. Tumor size was measured in 2 diameter with micrometer caliper at the indicate times to permit calculation of tumor volume, V=(a×b^2)/2, where “a” is the length and “b” is the width in millimeters. At the end of the experiment, all the animals were sacrificed, The tumor inhibitory rates were calculated using the following formula: [(mean tumor volume of control nude mice−mean tumor volume of treated nude mice)/mean tumor volume of control nude mice]×100%.
The disclosed observations indicate that verticillin A can dramatically increase TRAIL-induced tumor cell apoptosis. To determine whether these in vitro observations can be extended to enhance TRAIL-mediated tumor suppression in vivo, SW620 cells were injected subcutaneously to athymic mice, verticillin A and TRAIL, either used as single agent or in combination, were then injected to the tumor-bearing mice. Tumor growth rate were measured in different time points. Verticillin A can inhibit tumor cell growth in vitro at high dose and sensitize tumor cells to TRAIL-induced apoptosis at a low dose. […] As expected, SW620 tumors are resistant to TRAIL (Voelkel-Johnson C, et al. Mol Cancer Ther 2005 4(9):1320-7).

Molecule | growth inhibitory effect of the drug alone at lower dose [4] | SW620 cell sensitivity to the drug [4] | also measured
Nc1ncn([C@H]2C[C@H](O)[C@@H](CO)O2)c(=O)n1 [AzadC, reference compound] |  |  | expression levels of BNIP3, IRF8, Neurog1, p15ink4b, RUNX3 [1]: dramatically increased
CCCCCCCCCCCCC/C=C/[C@@H](O)[C@H](CO)NC(=O)CCCCCCCCCCCCCCC [C16 ceramide] |  |  | tumor cell sensitivity to TRAIL-mediated apoptosis ([2]; SW620, C16 ceramide 2 h then TRAIL): dramatically increased the tumor cell sensitivity to TRAIL-mediated apoptosis; apoptosis-inducing activity ([2]; SW620, C16 ceramide alone): exhibited apoptosis-inducing activity at a dose-dependent manner
O=C(CCCCCCCCCCCCCCC[n+]1ccccc1)N[C@H](CO)[C@H](O)c1ccc([N+](=O)[O-])cc1.[Br-] [LCL85, (1R,2R)-2_N-[16-(1′-pyridinium)-hexadecanoylamino)-1-(4′-nitrophenyl)-1,3-propandiol bromide] |  |  | sensitivity of tumor cells to TRAIL-induced apoptosis [3]: significantly increased the sensitivity of tumor cells to TRAIL-induced apoptosis
N.N.[Cl][Pt][Cl] [Cisplatin] | minimal inhibitory effects | only sensitive to high doses | 
COc1cc([C@@H]2c3cc4c(cc3[C@@H](O[C@@H]3O[C@@H]5CO[C@@H](C)O[C@H]5[C@H](O)[C@H]3O)[C@H]3COC(=O)[C@H]23)OCO4)cc(OC)c1O [Etoposide] | minimal inhibitory effects | resistant | 
COc1cccc2c1C(=O)c1c(O)c3c(c(O)c1C2=O)C[C@@](O)(C(=O)CO)C[C@@H]3O[C@H]1C[C@H](N)[C@H](O)[C@H](C)O1 [Doxorubicin] | minimal inhibitory effects | only sensitive to high doses | 
O=c1[nH]cc(F)c(=O)[nH]1 [5-FU] | minimal inhibitory effects | sensitive | 
TRAIL: TNF-related apoptosis-inducing ligand; recombinant TRAIL protein expressed and purified from E. coli (protein, UniProt P50591 1-281, looked up) Tumor necrosis factor ligand …: MAMMEVQGGPSLGQTCVLIVIFTVLLQSLCVAVTYVYFTNELKQMQDKYSKSGIACFLKEDDSYWDPNDEESMNSPCWQVKWQLRQLVRKMILRTSEETISTVQEKQQNISPLVRERGPQRVAAHITGTRGRSNTLSSPNSKNEKALGRKINSWESSRSGHSFLSNLHLRNGELVIHEKGFYYIYSQTYFRFQEEIKENTKNDKQMVQYIYKYTSYPDPILLMKSARNSCWSKDAEYGLYSIYQGGIFELKENDRIFVSVTNEHLIDMDHEASFFGAFLVG |  |  | apoptosis induction, single agent [5]: no apoptosis induction activity; SW620 tumor response to TRAIL alone [6]: resistant
